Laboratory results from ChEMBL document CHEMBL1122093, “Preparation of the alpha and beta anomers of 9-(3,5-dideoxy-D-glycero-pent-4-enofuranosyl)adenine and their activity with leukemia L1210 cells in vitro” (1982).

Experiments:
L1210 [1] = experiment: In vitro for the inhibitory activity against L1210 leukemia cells at a concentration 3.4x10 E -4 M; assay type: functional; conditions: Mus musculus
L1210 [2] = experiment: In vitro for the inhibitory activity against L1210 leukemia cells at a concentration 3.2x10 E -4 M; assay type: functional; conditions: Mus musculus

SMILES | inhibition at 340 µM (L1210 [1]) [%] | inhibition at 320 µM (L1210 [2]) [%]
C=C1C[C@@H](O)[C@@H](n2cnc3c(N)ncnc32)O1 | 50 | –
C=C1C[C@@H](O)[C@H](n2cnc3c(N)ncnc32)O1 | – | 50
